Article PMC7083837 (Nature Communications, 2020)
Where “and” joins values, the source holds several entries; their conditions need not be identical. Equal values may be shown once.

Tests used:
SERT WT = target: T1, SERT WT (Homo sapiens, UniProt P31645); experiment: [3H]IMI competitive binding on COS-7 membranes
T1 construct: expressed in transfected cells; host or cells: COS-7
Protocol: [^3H]S-CIT and [^3H]IMI competitive binding experiments were performed on membrane preparations of COS-7 cells transiently transfected with SERT WT. Membrane aliquots were mixed with membrane buffer containing 5–10 nM of either [^3H]S-CIT or [^3H]IMI and Lu AF60097 in the indicated concentrations to a final volume of 300 µL. The binding experiments were incubated 1 h at room temperature and subsequently filtered, washed and counted as described under ‘[^3H]IMI and [^3H]S-CIT dissociation rate assay’. Non-specific binding was determined by adding 5 µM paroxetine.

[1] = system: extracellular 5-HT levels in rat hippocampus; experiment: Microdialysis in ventral hippocampus of freely moving rats; assay type: in vivo; design: extracellular 5-HT level / AUC: unit not given here;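 for extracellular 5-HT level: percent of mean basal level in three fractions before perfusion start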
SERT I179F = target: T2, SERT I179F (Homo sapiens, UniProt P31645, I179F); experiment: [3H]IMI dissociation rate assay; assay type: binding
T2 construct: expressed in transfected cells; host or cells: COS-7
Protocol: (§1) All mutations were confirmed by DNA sequencing. The used primers were
(§2) The allosteric potency was calculated as previously described.

SERT F556L = target: T3, SERT F556L (Homo sapiens, UniProt P31645, F556L); experiment: [3H]IMI dissociation rate assay; assay type: binding
T3 construct: expressed in transfected cells; host or cells: COS-7
Protocol: as §1, §2

SERT F556R = target: T4, SERT F556R (Homo sapiens, UniProt P31645, F556R); experiment: [3H]IMI dissociation rate assay; assay type: binding
T4 construct: expressed in transfected cells; host or cells: COS-7
Protocol: as §1, §2

SERT A486E = target: T5, SERT A486E (Homo sapiens, UniProt P31645, A486E); experiment: [3H]IMI dissociation rate assay; assay type: binding
T5 construct: expressed in transfected cells; host or cells: COS-7
Protocol: as §1, §2

SERT A331D = target: T6, SERT A331D (Homo sapiens, UniProt P31645, A331D); experiment: [3H]IMI dissociation rate assay; assay type: binding
T6 construct: expressed in transfected cells; host or cells: COS-7
Protocol: as §1, §2

SERT R104K = target: T7, SERT R104K (Homo sapiens, UniProt P31645, R104K); experiment: [3H]IMI dissociation rate assay; assay type: binding
T7 construct: expressed in transfected cells; host or cells: COS-7
Protocol: as §1, §2

SERT A486E-K490A = target: T8, SERT A486E-K490A (Homo sapiens, UniProt P31645, A486E/K490A); experiment: [3H]IMI dissociation rate assay; assay type: binding; conditions: A486E-K490A; [^3H]IMI dissociation
T8 construct: expressed in transfected cells; host or cells: COS-7
Protocol: as §1, §2

Structure (SMILES): NC(=O)c1ccc2c(c1)CO[C@@]2(CCCN1CCC(c2ccc3ccc(=O)[nH]c3c2)CC1)c1ccc(F)cc1 [Lu AF60097, (S)-1-(4-fluorophenyl)-1-(3-(4-(2-oxo-1,2-dihydroquinolin-7-yl)piperidin-1-yl)propyl)-1,3-dihydroisobenzofuran-5-carboxamide]
- Displacement of [^3H]IMI in binding experiment (SERT WT; equilibrium binding, SERT WT membranes): not displaced
- Displacement of [3H]IMI binding (normalized bound, Fig S6) (SERT WT; log[Lu AF60097] -4.9586): 0.8037 and 0.8081 and 0.979
- Displacement of [3H]IMI binding (normalized bound, Fig S6) (SERT WT; log[Lu AF60097] -5.2596): 0.9221 and 1.029 and 1.04
- Displacement of [3H]IMI binding (normalized bound, Fig S6) (SERT WT; log[Lu AF60097] -5.5607): 1.05 and 0.9989 and 1.0302
- Displacement of [3H]IMI binding (normalized bound, Fig S6) (SERT WT; log[Lu AF60097] -5.8617): 1.118 and 1.161 and 1.01
- Displacement of [3H]IMI binding (normalized bound, Fig S6) (SERT WT; log[Lu AF60097] -6.1627): 1.173 and 1.156 and 0.9563
- Displacement of [3H]IMI binding (normalized bound, Fig S6) (SERT WT; log[Lu AF60097] -6.4638): 1.154 and 1.04 and 1.011
- Displacement of [3H]IMI binding (normalized bound, Fig S6) (SERT WT; log[Lu AF60097] -6.7648): 1.061 and 1.088 and 0.8905
- Displacement of [3H]IMI binding (normalized bound, Fig S6) (SERT WT; log[Lu AF60097] -7.0658): 1.098 and 0.9993 and 0.8339
- Displacement of [3H]IMI binding (normalized bound, Fig S6) (SERT WT; log[Lu AF60097] -7.3668): 1.049 and 0.9798
- Displacement of [3H]IMI binding (normalized bound, Fig S6) (SERT WT; log[Lu AF60097] -7.6679): 1.052 and 1.0159
- Maximum extracellular 5-HT level, % of basal level ([1]; 1 µl (250 nM) injected in ventral hippocampus): 602 ± 156%
- Hippocampal 5-HT level above saline ([1]; 1 µl of 250 nM injected locally, after 2 h): about 6 fold
- extracellular 5-HT level ([1]; Fig 6A, time 0): 99.15 and 92.9 and 84.7 and 127.51 and 96.31 and 90.57
- extracellular 5-HT level ([1]; Fig 6A, time -20): 99.13 and 103.53 and 109.41 and 104.22 and 103.69 and 101.06
- extracellular 5-HT level ([1]; Fig 6A, time -40, single animals): 101.72 and 103.57 and 105.89 and 68.26 and 100 and 108.37
- AUC ([1]; Fig 6B Inset, single animals): 160 and 33 and 22 and 96 and 107 and 114 and 155 and 78 and 140 and 79 and 75 and 81 and 29 and 143 and 77
- extracellular 5-HT level ([1]; Fig 6B, Time -40, single animals): 98.41 and 131.26 and 120.63 and 87.45 and 121.36 and 138.4 and 108.61 and 82.38 and 85.26 and 67.86 and 55.86 and 116.12
- ΔAP (mut/WT), change in allosteric potency relative to SERT WT (SERT I179F; I179F, [^3H]IMI dissociation): 14
- [^3H]IMI dissociation relative to control (source data Fig 4B) (SERT I179F; I179F, log conc -7.817): 0.8727 and 0.9098
- IC50 (SERT I179F; SERT I179F (TM3), read-out: Lu AF60097 allosteric potency ([^3H]IMI dissociation IC50)): 440 nM
- ΔAP (mut/WT), change in allosteric potency relative to SERT WT (SERT F556L; F556L, [^3H]IMI dissociation): 10
- IC50 (SERT F556L; SERT F556L (TM11), read-out: Lu AF60097 allosteric potency ([^3H]IMI dissociation IC50)): 330 nM
- ΔAP (mut/WT), change in allosteric potency relative to SERT WT (SERT F556R; F556R, [^3H]IMI dissociation): >300
- Lu AF60097 allosteric potency ([^3H]IMI dissociation IC50) (SERT F556R; SERT F556R (TM11)): complete ablation of the allosteric potency
- IC50 (SERT F556R; SERT F556R (TM11), read-out: Lu AF60097 allosteric potency ([^3H]IMI dissociation IC50)): ≥ 10000 nM
- ΔAP (mut/WT), change in allosteric potency relative to SERT WT (SERT A486E; A486E, [^3H]IMI dissociation): 15
- IC50 (SERT A486E; SERT A486E (TM10), read-out: Lu AF60097 allosteric potency ([^3H]IMI dissociation IC50)): 470 nM
- ΔAP (mut/WT), change in allosteric potency relative to SERT WT (SERT A331D; A331D, [^3H]IMI dissociation): 293
- [^3H]IMI dissociation relative to control (source data Fig 4B) (SERT A331D; A331D, log conc -4.478): 0.2078 and 0.1902 and 0.1898
- [^3H]IMI dissociation relative to control (source data Fig 4B) (SERT A331D; A331D, log conc -4.955): 0.4404 and 0.4549 and 0.4274
- [^3H]IMI dissociation relative to control (source data Fig 4B) (SERT A331D; A331D, log conc -5.432): 0.7451 and 0.6969 and 0.749
- [^3H]IMI dissociation relative to control (source data Fig 4B) (SERT A331D; A331D, log conc -5.91): 0.8665 and 0.8882 and 0.9518
- [^3H]IMI dissociation relative to control (source data Fig 4B) (SERT A331D; A331D, log conc -6.386): 0.9951 and 1.0052 and 1.0336
- [^3H]IMI dissociation relative to control (source data Fig 4B) (SERT A331D; A331D, log conc -6.863): 1.0294 and 1.1129 and 0.9351
- [^3H]IMI dissociation relative to control (source data Fig 4B) (SERT A331D; A331D, log conc -7.34): 0.9855 and 0.9441 and 1.0485
- IC50 (SERT A331D; SERT A331D (TM6), read-out: Lu AF60097 allosteric potency ([^3H]IMI dissociation IC50)): 9100 nM
- ΔAP (mut/WT), change in allosteric potency relative to SERT WT (SERT R104K; R104K, [^3H]IMI dissociation): 19
- [^3H]IMI dissociation relative to control (source data Fig 4B) (SERT R104K; R104K, log conc -5.91): 0.3316 and 0.2892 and 0.4871 and 0.3865
- [^3H]IMI dissociation relative to control (source data Fig 4B) (SERT R104K; R104K, log conc -6.386): 0.5872 and 0.4706 and 0.6618 and 0.5459
- [^3H]IMI dissociation relative to control (source data Fig 4B) (SERT R104K; R104K, log conc -6.863): 0.8956 and 0.6502 and 0.7387 and 0.7045
- [^3H]IMI dissociation relative to control (source data Fig 4B) (SERT R104K; R104K, log conc -7.34): 1.0439 and 0.7759 and 0.8174 and 0.7536
- [^3H]IMI dissociation relative to control (source data Fig 4B) (SERT R104K; R104K, log conc -7.817): 0.9753 and 0.7981 and 0.836 and 0.9683
- IC50 (SERT R104K; SERT R104K (TM1), read-out: Lu AF60097 allosteric potency ([^3H]IMI dissociation IC50)): 630 nM
- ΔAP (mut/WT), change in allosteric potency relative to SERT WT (SERT A486E-K490A): 77
